Residues, ends and D or L forms follow the SMILES beside them.
How the values were obtained:
[1] = 14-day repeat-dose GLP toxicology study; details: cynomolgus monkey, in vivo
Method: (§1) A 14-day repeat-dose GLP toxicology study of F365 was conducted in Cynomolgus monkeys. The study complied with the OECD Principles of Good Laboratory Practice. […] Cynomolgus monkeys were approximately 2–4 years of age and weighed between 2.0 and 2.9 kg at the start of treatment. Four male and four female cynomolgus monkeys were used for each dose group. F365 (in 0.9% sodium chloride for injection) was administered four times daily (i.e. 6 h ± 15 min apart) as 60-min intravenous infusion at 5, 20, and 50 mg/kg/day for 14 consecutive days; the reference item (vehicle control) was also administered. Assessments of mortality checks, clinical observations, body weight, ophthalmology, and electrocardiography were conducted. Blood and urine samples were collected pre-treatment and at the end of the dosing period for hematology, clinical chemistry, coagulation, and urinalysis assessments. Other blood samples were collected after the first and last dose for toxicokinetic assessment. Following the end of the 14-day dosing period, animals were euthanized on Day 16 and examined macroscopically. Organ weights and macroscopic observations were recorded at necropsy for all groups. Histopathological examinations were performed on the specified tissues and organ list for animals across all groups.

cynomolgus monkeys = assay: 14-day repeat-dose GLP toxicology study; details: cynomolgus monkey, in vivo
Method: as §1

[2] = system: female cynomolgus monkeys; parameters: method as in earlier work; details: 3.8 mg/kg/12 h (7.6 mg/kg/day) for 7 days ref 27; cited from earlier work

| Molecule | NOAEL [1] [mg/kg/day] | AUC(0-t) ([1]; 5 mg/kg, Plasma AUC0-24 Day 1) [µg·h/mL] | AUC(0-t) ([1]; 5 mg/kg, Plasma AUC0-24 Day 14) [µg·h/mL] | AUC(0-t) ([1]; 20 mg/kg, Plasma AUC0-24 Day 1) [µg·h/mL] | AUC(0-t) ([1]; 20 mg/kg, Plasma AUC0-24 Day 14) [µg·h/mL] | AUC(0-t) ([1]; 50 mg/kg, Plasma AUC0-24 Day 1) [µg·h/mL] | AUC(0-t) ([1]; 50 mg/kg, Plasma AUC0-24 Day 14) [µg·h/mL] | estimated dose that can be safely administered to patients (cynomolgus monkeys) | Kidney histopathology (cynomolgus monkeys; 5 mg/kg) | kidney findings [2] |
| --- | --- | --- | --- | --- | --- | --- | --- | --- | --- | --- |
| CC[C@@H]1NC(=O)[C@@H](CC(C)C)NC(=O)[C@H](CCN)NC(=O)[C@@H](NC(=O)[C@H](CN)NC(=O)[C@@H](NC(=O)[C@H](CCN)NC(=O)c2ccc(Cl)cc2Cl)[C@@H](C)O)CCNC(=O)[C@H]([C@@H](C)O)NC(=O)[C@H](CCN)NC(=O)[C@H](CCN)NC1=O [Lipopeptide F365] (HELM PEPTIDE1{[O=C(c1ccc(Cl)cc1Cl)[*:2]].[Dab].T.[NC[C@H](N[*:1])C(=O)[*:2]].[Dab].[Dab].[dL].[Abu].[Dab].[Dab].T}$PEPTIDE1,PEPTIDE1,5:R3-11:R2$$$V2.0) | ≥ 20 | 24 | 26.4 | 97.2 | 110 | 246 | 378 | at least 6.5 mg/kg/day | 8/8 no changes | – |
| Polymyxin B [reference compound] | – | – | – | – | – | – | – | – | – | increased histological damage in all test animals |
